Patent US20240041042A1, “1-(PYRIDYL)-5-AZINYLPYRAZOLE DERIVATIVES, AND THEIR USE FOR CONTROL OF UNDESIRED PLANT GROWTH” (Bayer Aktiengesellschaft, priority 2020, published 2024)
One block for each compound: values may come before it.

Columns and labels:
Type in all cases: in vivo
[1] = test system: Lolium rigidum (LOLRI); assay: Post-emergence herbicidal action against LOLRI; conditions: dosage 320 g/ha
Outline: (§1)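 Values are percent visual activity (0% like control, 100% plants dead) after about 3 weeks in the greenhouse. Treatment: post-emergence spray at one-leaf stage, 600 l/ha spray volume, 0.5% additive, doses 320 g/ha or lower.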

[2] = test system: Alopecurus myosuroides (ALOMY); assay: Pre-emergence herbicidal action against ALOMY; conditions: scored visually after about 3 weeks, 100% = plants have died
Outline: (§2)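 Pre-emergence soil-surface spray of compound, formulated as wettable powder or emulsion concentrate, in aqueous suspension or emulsion with 0.5% additive (600 l/ha; rate 320 g/ha or less). Activity rated visually after roughly 3 weeks in the greenhouse as a percentage of untreated controls, 0% meaning no difference.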

[3] = test system: Polygonum convolvulus (POLCO); assay: Post-emergence herbicidal action against POLCO
Outline: as §1

[4] = test system: Abutilon theophrasti (ABUTH); assay: Pre-emergence herbicidal action against ABUTH; conditions: 100% = plants have died
Outline: as §2

[5] = test system: Matricaria inodora (MATIN); assay: Pre-emergence herbicidal action against MATIN
Outline: as §2

[6] = test system: Echinochloa crus-galli (ECHCG); assay: Post-emergence herbicidal action against ECHCG
Outline: as §1

[7] = test system: Amaranthus retroflexus (AMARE); assay: Pre-emergence herbicidal action against AMARE; conditions: visual scoring after about 3 weeks vs untreated controls
Outline: as §2

[8] = test system: Polygonum convolvulus (POLCO); assay: Pre-emergence herbicidal action against POLCO
Outline: as §2

[9] = test system: Lolium rigidum (LOLRI); assay: Pre-emergence herbicidal action against LOLRI; conditions: dosage 320 g/ha
Outline: as §2

[10] = test system: Pharbitis purpurea (PHBPU); assay: Pre-emergence herbicidal action against PHBPU; conditions: dosage 320 g/ha
Outline: as §2

[11] = test system: Amaranthus retroflexus (AMARE); assay: Post-emergence herbicidal action against AMARE
Outline: as §1

[12] = test system: Viola tricolor (VIOTR); assay: Post-emergence herbicidal action against VIOTR
Outline: as §1

[13] = test system: Zea mays (ZEAMX); conditions: pre-emergence, 80 g/ha, crop plant compatibility, in comparison to untreated controls
Outline: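 Scoring: visual, % of untreated control, about 3 weeks after a pre-emergence application to the soil surface. Application used WP or EC formulations diluted in water with 0.5% additive at 600 l/ha; dosage levels are marked by suffixes a, b and c.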

[14] = test system: Verconica persica (VERPE); assay: Post-emergence herbicidal action against VERPE
Outline: as §1

[15] = test system: Abutilon theophrasti (ABUTH); assay: Post-emergence herbicidal action against ABUTH; conditions: visual rating about 3 weeks after treatment vs untreated controls (100% = plants have died, 0% = like control plants)
Outline: as §1

[16] = test system: Oryza sativa (ORYSA); conditions: crop plant compatibility, 80 g/ha, effect in comparison to untreated controls
Outline: (§3)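 Percent effect on the crop was judged by eye against untreated controls, where 0% means like control and 100% means dead plants. Plants had been sprayed post-emergence at the one-leaf stage and then kept under optimum greenhouse conditions for about 3 weeks.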

[17] = test system: Zea mays (ZEAMX); conditions: crop plant compatibility, 80 g/ha, effect vs untreated controls
Outline: as §3

[18] = test system: Viola tricolor (VIOTR); assay: Pre-emergence herbicidal action against VIOTR
Outline: as §2

[19] = test system: Alopecurus myosuroides (ALOMY); assay: Post-emergence herbicidal action against ALOMY; conditions: visual rating about 3 weeks after treatment vs untreated controls (100% = plants have died, 0% = like control plants)
Outline: as §1

[20] = test system: Setaria viridis (SETVI); assay: Pre-emergence herbicidal action against SETVI; conditions: dosage 320 g/ha
Outline: as §2

[21] = test system: Avena fatua (AVEFA); assay: Pre-emergence herbicidal action against AVEFA; conditions: 320 g/ha, visual scoring after about 3 weeks vs untreated controls
Outline: as §2

[22] = test system: Setaria viridis (SETVI); assay: Post-emergence herbicidal action against SETVI; conditions: dosage 320 g/ha
Outline: as §1

[23] = test system: Pharbitis purpurea (PHBPU); assay: Post-emergence herbicidal action against PHBPU
Outline: as §1

[24] = test system: Matricaria inodora (MATIN); assay: Post-emergence herbicidal action against MATIN; conditions: dosage 320 g/ha
Outline: as §1

[25] = test system: Verconica persica (VERPE); assay: Pre-emergence herbicidal action against VERPE
Outline: as §2

[26] = test system: Echinochloa crus-galli (ECHCG); assay: Pre-emergence herbicidal action against ECHCG
Outline: as §2

[27] = test system: Avena fatua (AVEFA); assay: Post-emergence herbicidal action against AVEFA; conditions: 320 g/ha, visual rating about 3 weeks after treatment
Outline: as §1

[28] = Dosage column 320 g/ha (title prints 3200 g/ha), scored visually after about 3 weeks
[29] = 80 g/ha, visual rating about 3 weeks after treatment vs untreated controls (100% = plants have died, 0% = like control plants)
[30] = 320 g/ha, visual rating about 3 weeks after treatment

- Pre-emergence action against ZEAMX in % [13]: 20%
- Post-emergence action against ORYSA in % [16]: 0%
- Post-emergence action against ZEAMX in % [17]: 0%
Compound: O=C(O)COc1nn(-c2ncccc2C(F)(F)F)c(-c2ccc(F)nc2)c1Cl [Example I-327]
- Post-emergence action against LOLRI in % [1]: 90%
- Pre-emergence action against ALOMY ([2]; 320 g/ha): 100%
- Post-emergence action against POLCO in % ([3]; dosage 320 g/ha): 80%
- Pre-emergence action against ABUTH ([4]; 80 g/ha, scored visually after about 3 weeks vs untreated controls, 0% = like control plants): 100%
- Pre-emergence action against ABUTH [4, 28]: 100%
- Pre-emergence action against MATIN in % ([5]; dosage 80 g/ha): 80%
- Pre-emergence action against MATIN in % ([5]; dosage 320 g/ha): 80%
- Post-emergence action against ECHCG in % ([6]; dosage 80 g/ha): 80%
- Post-emergence action against ECHCG in % ([6]; dosage 320 g/ha): 90%
- Pre-emergence action against AMARE in % ([7]; 320 g/ha): 100%
- Pre-emergence action against POLCO in % ([8]; dosage 320 g/ha): 90%
- Pre-emergence action against LOLRI in % [9]: 100%
- Pre-emergence action against PHBPU in % [10]: 80%
- Post-emergence action against AMARE in % [11, 29]: 90%
- Post-emergence action against AMARE in % [11, 30]: 90%
- Post-emergence action against VIOTR in % ([12]; 80 g/ha): 90%
- Post-emergence action against VIOTR in % ([12]; 320 g/ha): 90%
- Post-emergence action against VERPE in % ([14]; 320 g/ha, VERPE): 90%
- Post-emergence action against VERPE in % ([14]; dosage 80 g/ha): 80%
- Post-emergence action against ABUTH in % ([15]; 80 g/ha): 80%
- Post-emergence action against ABUTH in % ([15]; 320 g/ha): 90%
- Pre-emergence action against VIOTR in % ([18]; 320 g/ha, Viola tricolor): 100%
- Pre-emergence action against VIOTR in % ([18]; dosage 80 g/ha): 100%
- Post-emergence action against ALOMY in % ([19]; 320 g/ha): 100%
- Pre-emergence action against SETVI in % [20]: 100%
- Pre-emergence action against AVEFA in % [21]: 80%
- Post-emergence action against SETVI in % [22]: 90%

- Pre-emergence action against ZEAMX in % [13]: 20%
- Post-emergence action against ORYSA in % [16]: 0%
Compound: COC(=O)CCOC(=O)COc1nn(-c2ccccn2)c(-c2ccc(F)nc2)c1Cl [Example I-88]
- Post-emergence action against LOLRI in % [1]: 80%
- Post-emergence action against PHBPU in % ([23]; dosage 80 g/ha): 80%
- Post-emergence action against PHBPU in % ([23]; dosage 320 g/ha): 80%
- Pre-emergence action against ALOMY ([2]; 80 g/ha): 80%
- Pre-emergence action against ALOMY ([2]; 320 g/ha): 100%
- Post-emergence action against POLCO in % ([3]; dosage 80 g/ha): 80%
- Post-emergence action against POLCO in % ([3]; dosage 320 g/ha): 80%
- Post-emergence action against MATIN in % [24]: 80%
- Pre-emergence action against ABUTH [4, 28]: 80%
- Pre-emergence action against MATIN in % ([5]; dosage 320 g/ha): 90%
- Post-emergence action against ECHCG in % ([6]; dosage 80 g/ha): 80%
- Post-emergence action against ECHCG in % ([6]; dosage 320 g/ha): 90%
- Pre-emergence action against AMARE in % ([7]; 80 g/ha): 80%
- Pre-emergence action against AMARE in % ([7]; 320 g/ha): 100%
- Pre-emergence action against POLCO in % ([8]; dosage 80 g/ha): 80%
- Pre-emergence action against POLCO in % ([8]; dosage 320 g/ha): 90%
- Pre-emergence action against VERPE in % ([25]; dosage 80 g/ha): 80%
- Pre-emergence action against VERPE in % ([25]; dosage 320 g/ha): 90%
- Pre-emergence action against LOLRI in % [9]: 100%
- Pre-emergence action against ECHCG in % ([26]; dosage 80 g/ha): 90%
- Pre-emergence action against ECHCG in % ([26]; dosage 320 g/ha): 100%
- Pre-emergence action against PHBPU in % [10]: 80%
- Post-emergence action against AMARE in % [11, 29]: 80%
- Post-emergence action against AMARE in % [11, 30]: 80%
- Post-emergence action against VERPE in % ([14]; 320 g/ha, VERPE): 80%
- Post-emergence action against VERPE in % ([14]; dosage 80 g/ha): 80%
- Post-emergence action against ABUTH in % ([15]; 80 g/ha): 80%
- Post-emergence action against ABUTH in % ([15]; 320 g/ha): 80%
- Pre-emergence action against VIOTR in % ([18]; 320 g/ha, Viola tricolor): 90%
- Post-emergence action against ALOMY in % ([19]; 80 g/ha): 80%
- Post-emergence action against ALOMY in % ([19]; 320 g/ha): 90%
- Pre-emergence action against SETVI in % [20]: 100%
- Post-emergence action against AVEFA in % [27]: 90%
- Pre-emergence action against AVEFA in % [21]: 90%
- Post-emergence action against SETVI in % [22]: 80%
